Results taken from ChEMBL document CHEMBL1201862, “PubChem BioAssay data set” (2004).
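Values below derive from 48-hour exposures of cells grown in 96-well plates, with endpoints linearly interpolated between the two concentrations bracketing the appropriate inhibition level. GI50 is the concentration that inhibits growth by half.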 Calls of active or inactive are those of the source. Cut-off read from the data, not from the text of the source: active = GI50 up to about 1.1 µM and inactive = higher.

Tests used:
Assay in all cases: inhibition of tumour cell growth, NCI panel, 48 h
NCI-H460 = test system: NCI-H460
HCT-116 = test system: HCT-116
MCF7 = test system: MCF7
RPMI-8226 = test system: RPMI-8226
A498 = test system: A498
IGROV-1 = test system: IGROV-1
NCI-H522 = test system: NCI-H522
MDA-N = test system: MDA-N
UACC-257 = test system: UACC-257
BT-549 = test system: BT-549
SW-620 = test system: SW-620
MDA-MB-231 = test system: MDA-MB-231
HOP-92 = test system: HOP-92
786-0 = test system: 786-0
SF-295 = test system: SF-295
HCT-15 = test system: HCT-15
TK-10 = test system: TK-10
HOP-62 = test system: HOP-62
SN12C = test system: SN12C
SF-539 = test system: SF-539

SMILES	GI50 (NCI-H460)	GI50 (HCT-116)	GI50 (MCF7)	GI50 (RPMI-8226)	GI50 (A498)	GI50 (IGROV-1)	GI50 (NCI-H522)	GI50 (MDA-N)	GI50 (UACC-257)	GI50 (BT-549)	GI50 (SW-620)	GI50 (MDA-MB-231)	GI50 (HOP-92)	GI50 (786-0)	GI50 (SF-295)	GI50 (HCT-15) [µM]	GI50 (TK-10)	GI50 (HOP-62)	GI50 (SN12C)	GI50 (SF-539)
CCOC(=O)C1=C(C)N(c2ccc(C)cc2)C2(O)C=CC(O)=C3C(=O)c4ccccc4C(=O)C312 (stereo not given)	34.2 µM (inactive)	48.5 µM (inactive)	23.3 µM (inactive)	11.1 µM (inactive)	29.4 µM (inactive)	19.5 µM (inactive)	16.1 µM (inactive)	21.1 µM (inactive)	22.9 µM (inactive)	19.2 µM (inactive)	28.1 µM (inactive)	34.4 µM (inactive)	19.3 µM (inactive)	33.9 µM (inactive)	68.1 µM (inactive)	22.8	44 µM (inactive)	> 100 µM (inactive)	32.4 µM (inactive)	22.2 µM (inactive)
OCc1ccn2c1[C@@H](O)CC2	> 100 µM (inactive)	> 100 µM (inactive)	> 100 µM (inactive)	> 100 µM (inactive)	> 100 µM (inactive)	> 100 µM (inactive)	1.55 µM (inactive)	> 100 µM (inactive)	> 100 µM (inactive)	> 100 µM (inactive)	> 100 µM (inactive)	> 100 µM (inactive)	> 100 µM (inactive)	> 100 µM (inactive)	> 100 µM (inactive)	> 100	> 100 µM (inactive)	> 100 µM (inactive)	> 100 µM (inactive)	> 100 µM (inactive)
O=C(c1ccccc1)c1ccc(-n2c3ccccc3c3ccc4c(c32)C(=O)C=CC4=O)cc1	18.5 µM (inactive)	5.2 µM (inactive)	3.21 µM (inactive)	6.17 µM (inactive)	12.2 µM (inactive)	16 µM (inactive)	3.43 µM (inactive)	16.5 µM (inactive)	12.7 µM (inactive)	20.3 µM (inactive)	3.88 µM (inactive)	8.24 µM (inactive)	3.48 µM (inactive)	2.06 µM (inactive)	15.7 µM (inactive)	11.3	12.7 µM (inactive)	16.4 µM (inactive)	9.08 µM (inactive)	10.4 µM (inactive)
Cc1ccc2nc3sc(=O)sc3nc2c1 [CHINOMETHIONAT]	12.9 µM (inactive)	17.2 µM (inactive)	17.6 µM (inactive)	19.5 µM (inactive)	7.48 µM (inactive)	16.1 µM (inactive)	17.5 µM (inactive)	17.4 µM (inactive)	16.9 µM (inactive)	15.3 µM (inactive)	24.1 µM (inactive)	17.3 µM (inactive)	15.5 µM (inactive)	15.5 µM (inactive)	16.6 µM (inactive)	15.3	16.4 µM (inactive)	16.6 µM (inactive)	15.5 µM (inactive)	18.7 µM (inactive)
NC(Cn1ccc(=O)c(O)c1)C(=O)O (stereo not given) [MIMOSINE]	> 100 µM (inactive)	> 100 µM (inactive)	> 100 µM (inactive)	> 100 µM (inactive)	> 100 µM (inactive)	> 100 µM (inactive)	> 100 µM (inactive)	> 100 µM (inactive)	> 100 µM (inactive)	> 100 µM (inactive)	> 100 µM (inactive)	> 100 µM (inactive)	> 100 µM (inactive)	> 100 µM (inactive)	> 100 µM (inactive)	> 100	> 100 µM (inactive)	> 100 µM (inactive)	> 100 µM (inactive)	> 100 µM (inactive)
